Series [1] is described as follows: survival / late mortality of guinea-pigs treated in the broncholitic activity test (48 hours, oral route). As to conditions: guinea pig, in vivo, po.
The subject of series [2] is bronchial spasm caused by a broncho-constrictor aerosol of histamine hydrochloride. Kind of series: broncholitic activity in the awake guinea-pig: percentage protection against bronchial spasm caused by histamine hydrochloride aerosol. Type of series: in vivo.
The test system of the next series is guinea-pigs. Kind of series: survival / late mortality of guinea-pigs treated in the broncholitic activity test (48 hours, oral route). Particulars: in words; tardy mortality.
A short description of series [3]: strengthening of the andiogenic convulsions test in the mouse. As to conditions: in vivo, ip, intraperitoneal dose of 50 mg/kg, read-out: death of treated animals. The class given is in vivo. An excerpt: (§1) The undesired action on the central nervous system has been evaluated with the strengthening of the andiogenic convulsions test in the mouse (Werboff et coll., Amer. J. Physiol., 201, 830, 1961). As is well known, the theophilline derivatives potentiate the effects of the acoustic stimulus (motory agitation, clonic and tonic convulsions which may lead to the death of the animals).

Series [4] has as its system effects of the acoustic stimulus (motory agitation, clonic and tonic convulsions). Described as above. Type of series: in vivo. Particulars: intraperitoneal dose of 50 mg/kg.
Description: as §1

The conditions of series [5]: bronchial asthma therapy; known for the comparison compound; cited from earlier work.
The nature of another series: acute toxicity, mouse. As to conditions: in vivo. The source says: (§2) o) compound dissolved in physiological salt solution.
(§3) x) compound suspended in 5% arabic gum.

Series [6] in a line: acute toxicity, guinea-pig. As to conditions: in vivo.
Description: as §2, §3

Where [7] appears, read: i.p. route, 25 mg/kg, after 30' of the administration.
Setting [8] is: i.p. route, 50 mg/kg, after 30' of the administration.
Setting [9] is: i.p. route, 75 mg/kg, after 30' of the administration.
Setting [10] is: oral route, 75 mg/kg, after 60' of the administration.
Setting [11] is: oral route, 150 mg/kg, after 60' of the administration.
Setting [12] is: oral route, 300 mg/kg, after 60' of the administration.
[13] abbreviates: ip, dissolved in physiological salt solution.
The mark [14] stands for this setting: po, per os, suspended in 5% arabic gum.

SMILES strings stand for the structures.

The values below come from patent US3975389A, “Caffeine derivatives” (priority 1973, dated 1976).

Regarding `Cc1ccnc(C)c1C(=O)OC(C)c1nc2c(c(=O)n(C)c(=O)n2C)n1C.Cl` (stereo not drawn) [386/986, 8-[α-(2,4-dimethylnicotinoyloxy)-ethyl]-caffeine monohydrochloride], the survival at 48 h in series [1] (75 mg/kg), in series [1] (150 mg/kg) and in series [1] (300 mg/kg) was 100% in each case. The “Protection percentage from the spasm caused by histamine” value (“Protection percentage” below) in series [2] (setting [7]) was 22%; in series [2] (setting [8]), 39%; in series [2] (setting [9]) it was 85%; in series [2] (setting [10]), 39%; in series [2] (setting [11]), 54%; in series [2] (setting [12]) it was 80%.

Take `Cn1c(=O)c2[nH]cnc2n(C)c1=O` [Aminophilline, reference compound]: in the series with guinea-pigs, the “mortality of guinea-pigs subjected to the broncholitic activity test” value is listed as “tardy high mortality”. In addition, the mortality in series [3] came out at 50%. Also, the “strengthening of the effects of the acoustic stimulus” value in series [4] is given as “remarkable strengthening of the effects of the acoustic stimulus”. For the same molecule, the undesired secondary effects result in series [5] was “excitement caused by caffeine and irritation of the gastric mucous membrane”. In addition, the “Protection percentage” value in series [2] (setting [8]) turned out to be 24%; in series [2] (setting [9]), 80%; in series [2] (i.p. route, 100 mg/kg, after 30' of the administration), 100%; in series [2] (i.p. route, 150 mg/kg, after 30' of the administration), 100%; in series [2] (oral route, 50 mg/kg, after 60' of the administration) it was 14%; in series [2] (setting [10]) it was 31%. Also, the “Protection percentage” value in series [2] (oral route, 100 mg/kg, after 60' of the administration) came to 92%; in series [2] (setting [11]), 95%.

As a reminder, the LD50 is the dose at which mortality reaches 50%. For `CC(OC(=O)c1cccnc1)c1nc2c(c(=O)n(C)c(=O)n2C)n1C` (stereo not drawn) [8-[α-(nicotinoyloxy)-ethyl]-caffeine], the LD50 stood at 445 mg/kg in “acute toxicity, mouse” (setting [13]); 520 mg/kg in the series “acute toxicity, mouse” (setting [14]); 220 mg/kg in series [6] (setting [13]); 440 mg/kg in series [6] (setting [14]).

Consider `CC(OC(=O)c1cccnc1)c1nc2c(c(=O)n(C)c(=O)n2C)n1C.Cl` (stereo not drawn) [386/770, 8-[α-(nicotinoyloxy)-ethyl]-caffeine monohydrochloride], for which the survival at 48 h in series [1] (75 mg/kg), in series [1] (150 mg/kg) and in series [1] (300 mg/kg) was 100% in each case. Besides, the “Protection percentage” value in series [2] (setting [7]) was found to be 35%; in series [2] (setting [8]), 38%; in series [2] (setting [9]), 94%; in series [2] (setting [10]) it was 13%; in series [2] (setting [11]), 26%; in series [2] (setting [12]) it was 65%.

`Cc1ccnc(C)c1C(=O)OC(C)c1nc2c(c(=O)n(C)c(=O)n2C)n1C` (stereo not drawn) [8-[α-(2,4-dimethylnicotinoyloxy)-ethyl]-caffeine]: the LD50 in the series “acute toxicity, mouse” (setting [13]) was 320 mg/kg; in the series “acute toxicity, mouse” (setting [14]), 500 mg/kg.
